Measurements: the supplement of paper PMC10307832

Assays:
Test in all cases: relative viability (nuclei count vs DMSO), 5 days (fraction); higher = more cells survive
BAM7 + Tozasertib = compound: CCOC1=CC=CC=C1N=NC2=C(NN(C2=O)C3=NC(=CS3)C4=CC=CC=C4)C [BAM7] + Cc1cc(Nc2cc(N3CCN(C)CC3)nc(Sc3ccc(NC(=O)C4CC4)cc3)n2)n[nH]1 [Tozasertib] (partner 0.1 µM)
Summary of the method: (§1)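 Lung cancer cell lines were pin-tool dosed in 1536-well plates on the day after seeding, with either a lone drug or a fixed anchor-drug dose plus five library-drug doses (not always all listed) in √10 steps. Nuclei were counted on 4× images after 5 days. Relative viability is the ratio of treated-well to vehicle-well nuclei counts, with each value a median of duplicate plates.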

BAM7 + Phenformin = compound: CCOC1=CC=CC=C1N=NC2=C(NN(C2=O)C3=NC(=CS3)C4=CC=CC=C4)C [BAM7] + N=C(N)NC(=N)NCCc1ccccc1 [Phenformin] (partner 250 µM)
Summary of the method: as §1

[1] = compound: CCn1c(-c2nonc2N)nc2c(C#CC(C)(C)O)ncc(OC[C@H]3CCCNC3)c21 + CC(C)C[C@H](NC(=O)[C@H](Cc1ccccc1)NC(=O)c1cnccn1)B(O)O [Bortezomib] (partner 0.002 µM)
Summary of the method: as §1

[2] = compound: CCn1c(-c2nonc2N)nc2c(C#CC(C)(C)O)ncc(OC[C@H]3CCCNC3)c21 + CS(=O)(=O)CCNCc1ccc(-c2ccc3ncnc(Nc4ccc(OCc5cccc(F)c5)c(Cl)c4)c3c2)o1 [Lapatinib] (partner 2 µM)
Summary of the method: as §1

Cell Line | relative viability (BAM7 + Tozasertib; first compound 0.5 µM) | relative viability (BAM7 + Tozasertib; first compound 5 µM) | relative viability (BAM7 + Tozasertib; first compound 15.81 µM) | relative viability (BAM7 + Tozasertib; first compound 50 µM) | relative viability (BAM7 + Phenformin; first compound 0.5 µM) | relative viability (BAM7 + Phenformin; first compound 5 µM) | relative viability (BAM7 + Phenformin; first compound 15.81 µM) | relative viability (BAM7 + Phenformin; first compound 50 µM) | relative viability ([1]; first compound 0.01 µM) | relative viability ([1]; first compound 0.03162 µM) | relative viability ([1]; first compound 0.1 µM) | relative viability ([1]; first compound 0.3162 µM) | relative viability ([1]; first compound 1 µM) | relative viability ([2]; first compound 0.01 µM) | relative viability ([2]; first compound 0.03162 µM) | relative viability ([2]; first compound 0.1 µM) | relative viability ([2]; first compound 0.3162 µM) | relative viability ([2]; first compound 1 µM)
NCI-H3122 | 0.44 | 0.387 | 0.351 | 0.324 | 0.362 | 0.371 | 0.329 | 0.35 | 1.05 | 1.03 | 1.07 | 1.1 | 1.08 | 0.959 | 1.04 | 1.05 | 1.13 | 1
PC-3 [JPC-3] | 0.776 | 0.7 | 0.72 | 0.735 | 0.447 | 0.491 | 0.458 | 0.439 | 0.82 | 0.852 | 0.796 | 0.781 | 0.808 | 0.442 | 0.433 | 0.472 | 0.449 | 0.445
PC-14 | 0.58 | 0.595 | 0.591 | 0.557 | 0.619 | 0.558 | 0.588 | 0.591 | 0.966 | 0.84 | 0.956 | 0.813 | 0.852 | 0.314 | 0.406 | 0.319 | 0.246 | 0.291
RERF-LC-KJ | 0.413 | 0.264 | 0.231 | 0.249 | 0.357 | 0.35 | 0.29 | 0.328 | 0.997 | 1.11 | 1.06 | 0.974 | 1.2 | 0.873 | 0.743 | 0.814 | 0.832 | 0.926
SK-LU-1 | 0.332 | 0.449 | 0.341 | 0.323 | 0.556 | 0.733 | 0.532 | 0.619 | 1.08 | 1.08 | 0.707 | 0.992 | 1.22 | 1.02 | 0.907 | 0.85 | 0.894 | 0.676
SW 1573 | 0.213 | 0.174 | 0.165 | 0.191 | 0.386 | 0.381 | 0.327 | 0.39 | 0.993 | 0.946 | 0.864 | 0.908 | 0.646 | 1.1 | 1 | 1.02 | 0.869 | 0.946
